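1) Cells in 96-well plates. 2) Compound, 48 h, 5 concentrations. 3) Linear interpolation between surrounding doses. 4) Unreached endpoint = highest concentration. At the GI50, growth is halved. The concentration for full growth arrest is given as TGI.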
What was measured:
Test in all cases: growth of human tumour cells (NCI), 48 h
[1] = test system: NCI-H522 lung
[2] = test system: SK-MEL-2 melanoma
[3] = test system: OVCAR-5 ovarian
[4] = test system: IGROV1 ovarian
[5] = test system: OVCAR-8 ovarian
[6] = test system: RPMI-8226 leukemia
[7] = test system: LXFL 529 NSCLC
[8] = test system: SK-OV-3 ovarian
[9] = test system: A549 NSCLC
[10] = test system: MOLT-4 leukemia
[11] = test system: SN12C renal
[12] = test system: SF-295 CNS
[13] = test system: DMS 114 small cell lung
[14] = test system: SW-620 colon
[15] = test system: TK-10 renal
[16] = test system: HCC-2998 colon
[17] = test system: MALME-3M melanoma
[18] = test system: K-562 leukemia
[19] = test system: LOX IMVI melanoma
[20] = test system: HL-60(TB) leukemia
[21] = test system: DLD-1 colon
[22] = test system: NCI-H226 lung
[23] = test system: HT29 colon
[24] = test system: UACC-257 melanoma
[25] = test system: U251 CNS
[26] = test system: DMS 273 small cell lung
[27] = test system: NCI-H460 lung
[28] = test system: HOP-18 NSCLC
[29] = test system: SK-MEL-5 melanoma
[30] = test system: UACC-62 melanoma
[31] = test system: SNB-19 CNS
[32] = test system: HCT-15 colon
[33] = test system: CAKI-1 renal
[34] = test system: HOP-92 NSCLC
[35] = test system: RXF 393 renal
[36] = test system: HOP-62 NSCLC
[37] = test system: SK-MEL-28 melanoma
[38] = test system: EKVX NSCLC
[39] = test system: 786-0 renal
[40] = test system: SF-268 CNS
[41] = test system: COLO 205 colon
[42] = test system: OVCAR-3 ovarian
[43] = test system: HCT-116 colon
[44] = test system: NCI-H23 lung
[45] = test system: KM20L2 colon
[46] = test system: CCRF-CEM leukemia
[47] = test system: SR leukemia
[48] = test system: KM12 colon
[49] = test system: ACHN renal
[50] = test system: SF-539 CNS
[51] = test system: UO-31 renal
[52] = test system: RXF-631 renal
[53] = test system: SNB-75 CNS
[54] = test system: OVCAR-4 ovarian
[55] = test system: M14 melanoma
[56] = test system: SNB-78 CNS
[57] = test system: M19-MEL melanoma
[58] = test system: NCI/ADR-RES ovarian
[59] = test system: A498 renal
[60] = test system: MDA-MB-231 breast
[61] = test system: MCF7 breast
[62] = test system: XF 498 CNS
[63] = test system: HS 578T breast
[64] = test system: MDA-N
[65] = test system: PC-3 prostate
[66] = test system: DU-145 prostate
[67] = test system: MDA-MB-435
[68] = test system: T-47D breast
[69] = test system: BT-549 breast

## Cc1nc2sccn2c1C(=O)NNC(N)=S
[1]
  TGI: > 100 µM
[2]
  TGI: > 100 µM
[3]
  TGI: > 100 µM
[4]
  TGI: > 100 µM
[5]
  TGI: > 100 µM
[6]
  TGI: > 100 µM
[7]
  TGI: > 100 µM
[8]
  TGI: > 100 µM
[9]
  TGI: > 100 µM
[10]
  TGI: > 100 µM
[11]
  TGI: > 100 µM
[12]
  TGI: > 100 µM
[13]
  TGI: > 100 µM
[14]
  TGI: > 100 µM
[15]
  TGI: > 100 µM
[16]
  TGI: > 100 µM
[17]
  TGI: > 100 µM
[18]
  TGI: > 100 µM
[19]
  TGI: > 100 µM
[20]
  TGI: > 100 µM
[21]
  TGI: > 100 µM
[22]
  TGI: > 100 µM
[23]
  TGI: > 100 µM
[24]
  TGI: > 100 µM
[25]
  TGI: > 100 µM
[26]
  TGI: > 100 µM
[27]
  TGI: > 100 µM
[28]
  TGI: > 100 µM
[29]
  TGI: > 100 µM
[30]
  TGI: > 100 µM
[31]
  TGI: > 100 µM
[32]
  TGI: > 100 µM
[33]
  TGI: > 100 µM
[34]
  TGI: > 100 µM
[35]
  TGI: > 100 µM
[36]
  TGI: > 100 µM
[37]
  TGI: > 100 µM
[38]
  TGI: > 100 µM
[39]
  TGI: > 100 µM
[40]
  TGI: > 100 µM
[41]
  TGI: > 100 µM
[42]
  TGI: > 100 µM
[43]
  TGI: > 100 µM
[44]
  TGI: > 100 µM
[45]
  TGI: > 100 µM
[46]
  TGI: > 100 µM
[47]
  TGI: > 100 µM
[48]
  TGI: > 100 µM
[49]
  TGI: > 100 µM
[50]
  TGI: > 100 µM

## Cc1cccc(C)c1NC(=O)CCCC(=O)C(C#N)c1ccccc1 (centres undefined)
[1]
  TGI: > 100 µM
[2]
  TGI: > 100 µM
[4]
  TGI: > 100 µM
[6]
  TGI: > 100 µM
[51]
  TGI: > 100 µM
[7]
  TGI: > 100 µM
[8]
  TGI: > 100 µM
[10]
  TGI: > 100 µM
[52]
  TGI: > 100 µM
[14]
  TGI: > 100 µM
[18]
  TGI: > 100 µM
[20]
  TGI: > 100 µM
[53]
  TGI: > 100 µM
[21]
  TGI: > 100 µM
[22]
  TGI: > 100 µM
[24]
  TGI: > 100 µM
[29]
  TGI: > 100 µM
[54]
  TGI: > 100 µM
[33]
  TGI: > 100 µM
[34]
  TGI: > 100 µM
[35]
  TGI: > 100 µM
[37]
  TGI: > 100 µM
[41]
  TGI: > 100 µM
[55]
  TGI: > 100 µM
[43]
  TGI: > 100 µM
[44]
  TGI: > 100 µM
[56]
  TGI: > 100 µM
[57]
  TGI: > 100000 nM
[46]
  TGI: > 100 µM
[47]
  TGI: > 100 µM
[49]
  TGI: > 100 µM

## COCc1cc2c(s1)C(=O)C1=C(C2=O)C2(C=C(Br)C(=O)C(Br)=C2)CCN1
[1]
  TGI: 7.31 µM
[58]
  TGI: 9.41 µM
[2]
  TGI: 15.2 µM
[3]
  TGI: 29.5 µM
[4]
  TGI: 19.3 µM
[5]
  TGI: 14.8 µM
[6]
  TGI: 19.8 µM
[51]
  TGI: 25.4 µM
[59]
  TGI: 29.6 µM
[7]
  TGI: 11.7 µM
[8]
  TGI: 30.7 µM
[9]
  TGI: 19.4 µM
[60]
  TGI: 15.2 µM
[10]
  TGI: 8.29 µM
[61]
  TGI: 28.1 µM
[11]
  TGI: 20.4 µM
[12]
  TGI: 19.3 µM
[13]
  TGI: 3.34 µM
[14]
  TGI: 10.6 µM
[15]
  TGI: 32.4 µM
[16]
  TGI: 24.8 µM
[62]
  TGI: 19.6 µM
[17]
  TGI: 2.23 µM
[18]
  TGI: 9.32 µM
[19]
  TGI: 7.68 µM
[20]
  TGI: 16.3 µM
[53]
  TGI: 27.9 µM
[63]
  TGI: 30.6 µM
[21]
  TGI: 24.4 µM
[22]
  TGI: 26.7 µM
[23]
  TGI: 12.9 µM
[24]
  TGI: 3.32 µM
[25]
  TGI: 23.7 µM
[64]
  TGI: 3.11 µM
[26]
  TGI: 13.6 µM
[27]
  TGI: 14.5 µM
[28]
  TGI: 28.4 µM
[29]
  TGI: 5.62 µM
[30]
  TGI: 3.08 µM
[31]
  TGI: 35.5 µM
[32]
  TGI: 14.7 µM
[54]
  TGI: 3.57 µM
[33]
  TGI: 34.6 µM
[65]
  TGI: 12.1 µM
[34]
  TGI: 15.1 µM
[35]
  TGI: 6.94 µM
[66]
  TGI: 29.8 µM
[67]
  TGI: 2.94 µM
[37]
  TGI: 20.3 µM
[38]
  TGI: 26.3 µM
[39]
  TGI: 16.3 µM
[40]
  TGI: 17.8 µM
[41]
  TGI: 12.4 µM
[42]
  TGI: 11.8 µM
[55]
  TGI: 4.32 µM
[43]
  TGI: 3.11 µM
[44]
  TGI: 9.51 µM
[56]
  TGI: 24.4 µM
[57]
  TGI: 2770 nM
[46]
  TGI: 16.7 µM
[47]
  TGI: 8.35 µM
[48]
  TGI: 17.9 µM
[68]
  TGI: 9.2 µM
[49]
  TGI: 18 µM
[50]
  TGI: 15.5 µM

## CN(Cc1cnc2nc(N)nc(N)c2n1)c1ccc(C(=O)NC(CCC(=O)O)C(=O)O)c2ccccc12 (centres undefined)
[1]
  GI50: 82.6 nM
  TGI: 7.12 µM
[58]
  TGI: > 1000 µM
[2]
  GI50: > 1 mM
  TGI: > 1000 µM
[3]
  TGI: > 1000 µM
[4]
  TGI: > 1000 µM
[5]
  TGI: > 1000 µM
[6]
  TGI: > 1000 µM
[51]
  TGI: > 1000 µM
[59]
  GI50: 15.2 nM
  TGI: > 1000 µM
[8]
  GI50: 55.3 µM
  TGI: > 1000 µM
[9]
  TGI: > 1000 µM
[60]
  GI50: > 1 mM
  TGI: > 1000 µM
[10]
  TGI: > 1000 µM
[61]
  TGI: > 1000 µM
[11]
  TGI: > 1000 µM
[12]
  TGI: > 1000 µM
[14]
  TGI: > 1000 µM
[15]
  GI50: > 1 mM
  TGI: > 1000 µM
[17]
  GI50: > 1 mM
  TGI: > 1000 µM
[18]
  TGI: > 1000 µM
[19]
  TGI: > 1000 µM
[20]
  TGI: > 1000 µM
[53]
  GI50: > 85.6 µM
[63]
  GI50: > 1 mM
  TGI: > 1000 µM
[21]
  GI50: 2.57 nM
[22]
  GI50: > 1 mM
  TGI: > 1000 µM
[23]
  TGI: > 1000 µM
[24]
  GI50: < 36.3 nM
[25]
  GI50: 293 µM
  TGI: > 1000 µM
[64]
  TGI: > 1000 µM
[26]
  GI50: 0.946 nM
[27]
  TGI: > 1000 µM
[28]
  GI50: 45.2 nM
[29]
  TGI: > 1000 µM
[30]
  TGI: > 1000 µM
[31]
  GI50: < 17.4 nM
  TGI: > 1000 µM
[32]
  TGI: > 1000 µM
[54]
  GI50: > 1 mM
  TGI: > 1000 µM
[33]
  TGI: > 1000 µM
[65]
  GI50: 89.8 µM
  TGI: > 1000 µM
[34]
  GI50: > 1 mM
  TGI: > 1000 µM
[35]
  GI50: > 1 mM
  TGI: > 1000 µM
[66]
  TGI: > 1000 µM
[67]
  TGI: > 1000 µM
[36]
  GI50: < 24.4 nM
[37]
  GI50: 61.6 nM
[38]
  GI50: > 1 mM
  TGI: > 1000 µM
[39]
  TGI: > 1000 µM
[69]
  GI50: > 1 mM
  TGI: > 1 mM
[40]
  TGI: > 1000 µM
[42]
  GI50: 32.9 µM
[55]
  TGI: > 1000 µM
[43]
  TGI: > 1000 µM
[44]
  TGI: > 1000 µM
[57]
  GI50: 72.5 nM
[45]
  GI50: 4.89 nM
[46]
  TGI: > 1000 µM
[47]
  TGI: > 1000 µM
[48]
  TGI: > 1000 µM
[68]
  TGI: > 1000 µM
[49]
  TGI: > 1000 µM

From PubChem BioAssay (NCI)
